Results from patent publication US20260365663A1, “EMOPAMIL-BINDING PROTEIN INHIBITORS AND USES THEREOF” (BIOGEN MA INC., priority 2022, published 2026).
pIC50: −log10 of the molar value.

target: T1, EBP (Homo sapiens, UniProt Q15125); experiment: EBP Functional Assay (EBP immunoaffinity LC-MS assay); assay type: biochemical; details: not given
T1 construct: HEK293T cells were utilized as the source of EBP enzyme; endogenous in cells; host or cells: HEK293T
Procedure, shortened: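 HEK293T-derived EBP preincubated 30 min with inhibitor, then zymosterol-d5 added and incubated 4 h at 37 °C. Extracted sterols quantified by LC-APCI MRM MS (372.3-203.2, positive mode). IC50 from percent conversion to […], fit to a 4-parameter logistic model.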

T1 sequence (Q15125 whole entry): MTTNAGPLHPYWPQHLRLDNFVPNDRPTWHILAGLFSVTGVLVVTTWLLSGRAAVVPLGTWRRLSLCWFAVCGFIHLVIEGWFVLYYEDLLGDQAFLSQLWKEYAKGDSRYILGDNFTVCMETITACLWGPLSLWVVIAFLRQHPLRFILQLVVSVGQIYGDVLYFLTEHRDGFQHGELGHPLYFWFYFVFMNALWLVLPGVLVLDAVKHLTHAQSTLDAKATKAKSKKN

SMILES | pIC50
COc1ccc(S(=O)(=O)N2CC3(CCC(N4CCOCC4)C3)C2)c(C)n1 (stereo not drawn) [Example 48, 4-(2-((6-methoxy-2-methylpyridin-3-yl)sulfonyl)-2-azaspiro[3.4]octan-6-yl)morpholine] | > 7.00
Cc1nc(C(F)(F)F)ncc1S(=O)(=O)N1CC2(CC(N3CC4(COC4)C3)C2)C1 [Example 17, 6-(2-((4-Methyl-2-(trifluoromethyl)pyrimidin-5-yl)sulfonyl)-2-azaspiro[3.3]heptan-6-yl)-2-oxa-6-azaspiro[3.3]heptane] | < 5.52
COc1ncc(C)cc1S(=O)(=O)N1CC2(CC(N3CC4(COC4)C3)CO2)C1 (stereo not drawn) [Example 22, 2-((2-Methoxy-5-methylpyridin-3-yl)sulfonyl)-7-(2-oxa-6-azaspiro[3.3]heptan-6-yl)-5-oxa-2-azaspiro[3.4]octane] | 5.52 to 6.30
Cc1nc(C(C)(F)F)ccc1S(=O)(=O)N1CC2(CC(N3CC4(CCO4)C3)C2)C1 [Example 68, 6-(2-((6-(1,1-difluoroethyl)-2-methylpyridin-3-yl)sulfonyl)-2-azaspiro[3.3]heptan-6-yl)-1-oxa-6-azaspiro[3.3]heptane] | 5.52 to 6.30
Cc1cc(C(F)(F)F)ncc1S(=O)(=O)N1CC2(CCC(N3CCOCC3)C2)C1 (stereo not drawn) [Example 41, 4-(2-((4-Methyl-6-(trifluoromethyl)pyridin-3-yl)sulfonyl)-2-azaspiro[3.4]octan-6-yl)morpholine] | 6.30 to 7.00

same assay, conditions: HEK293T cells as source of EBP enzyme; zymosterol-d5 substrate; inhibitor 30 min, then 37 °C for 4 h; percent conversion to dehydrolathosterol-d5 by LC-APCI MRM MS; read-out: EBP Functional Assay

SMILES | pIC50
CC1CCN(C2CC3(C2)CN(S(=O)(=O)c2ccc(OC(F)F)cc2)C3)CC1 [Example 20, 2-((4-(Difluoromethoxy)phenyl)sulfonyl)-6-(4-methylpiperidin-1-yl)-2-azaspiro[3.3]heptane] | 5.52 to 6.30
Cc1nc(C(F)(F)F)ncc1S(=O)(=O)N1CC2(CC(N(C)C3CC4(COC4)C3)C2)C1 (stereo not drawn) [Example 82, N-methyl-2-((4-methyl-2-(trifluoromethyl)pyrimidin-5-yl)sulfonyl)-N-(2-oxaspiro[3.3]heptan-6-yl)-2-azaspiro[3.3]heptan-6-amine] | > 7.00
COc1cc(S(=O)(=O)N2CC3(CCC(N4CCOCC4)C3)C2)n(C)n1 (stereo not drawn) [Example 34, 4-(2-((3-Methoxy-1-methyl-1H-pyrazol-5-yl)sulfonyl)-2-azaspiro[3.4]octan-6-yl)morpholine] | 6.30 to 7.00
Cc1nc(C(F)(F)F)ncc1S(=O)(=O)N1CC2(CC(NC3COC3)C2)C1 [Example 77, 2-((4-methyl-2-(trifluoromethyl)pyrimidin-5-yl)sulfonyl)-N-(oxetan-3-yl)-2-azaspiro[3.3]heptan-6-amine] | 5.52 to 6.30
CC1CCN(C2COC3(C2)CN(S(=O)(=O)c2ccc(OC(F)F)cc2)C3)CC1 (stereo not drawn) [Example 54, 2-((4-(Difluoromethoxy)phenyl)sulfonyl)-7-(4-methylpiperidin-1-yl)-5-oxa-2-azaspiro[3.4]octane] | 6.30 to 7.00
Cc1nc(C(F)(F)F)ccc1S(=O)(=O)NC1CC2(C1)CN(C1CCOCC1)C2 [Example 18, 2-Methyl-N-(2-(tetrahydro-2H-pyran-4-yl)-2-azaspiro[3.3]heptan-6-yl)-6-(trifluoromethyl)pyridine-3-sulfonamide] | 5.52 to 6.30
COCCN(C)C1CCC2(C1)CN(S(=O)(=O)c1cc(C(F)(F)F)nn1C)C2 (stereo not drawn) [Example 33, N-(2-Methoxyethyl)-N-methyl-2-((1-methyl-3-(trifluoromethyl)-1H-pyrazol-5-yl)sulfonyl)-2-azaspiro[3.4]octan-6-amine] | 5.52 to 6.30
Cc1nc(C(C)(F)F)ccc1S(=O)(=O)N1CC2(CC(NC3CC4(COC4)C3)C2)C1 (stereo not drawn) [Example 70, 2-((6-(1,1-difluoroethyl)-2-methylpyridin-3-yl)sulfonyl)-N-(2-oxaspiro[3.3]heptan-6-yl)-2-azaspiro[3.3]heptan-6-amine] | 6.30 to 7.00
Cc1cc(C(F)(F)F)ncc1S(=O)(=O)N1CC2(CC[C@@H](N3CCOCC3)C2)C1 (single isomer, unassigned) [Example 62] | > 7.00
Cc1nc(C(F)(F)F)ncc1S(=O)(=O)N1CC2(CC(NC3CC4(COC4)C3)C2)C1 (stereo not drawn) [Example 78, 2-((4-methyl-2-(trifluoromethyl)pyrimidin-5-yl)sulfonyl)-N-(2-oxaspiro[3.3]heptan-6-yl)-2-azaspiro[3.3]heptan-6-amine] | 6.30 to 7.00
Cc1nc(C(F)(F)F)ccc1S(=O)(=O)N1CC2(CC(NC3COC3)C2)C1 [Example 8, 2-((2-Methyl-6-(trifluoromethyl)pyridin-3-yl)sulfonyl)-N-(oxetan-3-yl)-2-azaspiro[3.3]heptan-6-amine] | 5.52 to 6.30
Cc1nc(C(F)(F)F)ccc1S(=O)(=O)N1CC2(CC(NC3CCOCC3)C2)C1 [Example 3, 2-((2-Methyl-6-(trifluoromethyl)pyridin-3-yl)sulfonyl)-N-(tetrahydro-2H-pyran-4-yl)-2-azaspiro[3.3]heptan-6-amine] | 6.30 to 7.00
Cn1nc(C(F)(F)F)cc1S(=O)(=O)N1CC2(CCC(N3CCOCC3)C2)C1 (stereo not drawn) [Example 35, 4-(2-((1-Methyl-3-(trifluoromethyl)-1H-pyrazol-5-yl)sulfonyl)-2-azaspiro[3.4]octan-6-yl)morpholine] | 6.30 to 7.00
